# Literature values as cited in US6670343B1, “Drugs for periodontal disease” (Toray Industries, Inc., priority 1999, dated 2003).
# Details: reported in J. Periodontology 63, 825-830 (1992)
compound,measurement,value
"NCCCC(O)(P(=O)(O)O)P(=O)(O)O [4-amino-1-hydroxybutylidene-1,1-bisphosphonic acid]",effect on alveolar bone resorption,effectively suppresses alveolar bone resorption
same,effect on dental pocket formation and gingival inflammation,not effective
